Experimental data taken from patent US11254680B2, “Cyclic iminopyrimidine derivatives as kinase inhibitors” (ABM Therapeutics Corporation, priority 2017, dated 2022).

Columns and labels:
[1] = Caco-2 Permeability Assay; assay type: in vitro ADME; settings: human; for efflux ratio at 120 min: Caco-2; for Papp A→B at 120 min: Caco-2, apical to basolateral; for Papp A→B at 120 min / Papp B→A at 120 min: 1-30 μM; for Papp B→A at 120 min: Caco-2, basolateral to apical
Protocol: Caco-2 cells are widely used as an in vitro assay to measure the permeability of a drug compound. The Caco-2 cell line is derived from a human colorectal carcinoma, and when cultured, the cells spontaneously differentiate into monolayers of polarized enterocytes. Caco-2 cells express P-glycoprotein and breast cancer resistance protein, two of the most relevant cell membrane active transporters that affect drug compound's permeability into cells and blood brain barrier.
The cells are seeded on Millipore Millicell plates and form a confluent monolayer over 20 days prior to the experiment. On day 20, the test compound (1-30 μM concentration) is added to the apical side of the membrane and the transport of the compound across the monolayer is monitored over a 120 minutes time period. To study drug efflux, it is also necessary to investigate transport of the compound from the basolateral compartment to the apical compartment.
The permeability coefficient (Papp) is calculated from the following equation: Papp=[(dQ/dt)/C0×A] where dQ/dt is the rate of permeation of the drug across the cells, C0 is the donor compartment concentration at time zero and A is the area of the cell monolayer. C0 is obtained from analysis of the dosing solution at the start experiment.

A375 melanoma cells = assay: Antiproliferation assay in A375 cell line by CellTiter Glo; assay type: cell-based; settings: Homo sapiens, A-375, 72 hours or 144 hours
Protocol: In vitro anti-proliferation study of test compounds in A375 cell line by CellTiter Glo. The cells were routinely maintained as a monolayer culture in corresponding culture medium, at 37° C. with 5% CO2 in air.
Harvest the exponential growth cells by trypsin-EDTA digestion. Re-suspend the cell pellet in fresh culture medium, and adjust the concentration to needed (the cell density per well was listed in following form). The cell viability is over 98% by Trypan blue staining. Inoculate cells into 96 wells plates according to the plate map (90 μL/well). Incubate the plates at 37° C. and 5% CO2 overnight. The next day, prepare the 10×compound containing medium according to the plate map. Transfer 10 μL of 10×compound containing medium into each well of the assay plates (the final DMSO concentration is 0.5%). Gently mix the medium and incubate at 37° C. and 5% CO2 for another 72 hours or 144 hours.
Prepare the reagent according to the manufacture's instruction. Add 50 μL CellTiter-Glo Reagent in each well. Mix contents for 2 minutes on an orbital shaker to induce cell lysis. Allow the plate to incubate at room temperature for 10 minutes to stabilize luminescent signal. Transfer 100 μL of reaction contents of each well from the clear plates into white walled/white opaque 96-well plates. Record the luminescence on Envision.
Using the luminescence measurements [time zero (T0), control growth (C), and test growth in the presence of drug at the six concentration levels (Ti)], the percentage growth is calculated at each of the drug concentrations levels.
Percentage growth inhibition (GI) is calculated as: GI (%)═[(Ti-T0)/(C-T0)]×100 for concentrations for which Ti>=T0, and GI (%)═[(Ti-T0)/T0]×100 for concentrations for which Ti<T0. Data were analyzed using the XLFit (Excel) tool, fitting to a 4-parameter equation to generate concentration response curves. Concentration of compound that inhibits 50% of control cell growth (GI50) was back-interpolated when y=50% of net growth of DMSO treated control wells using nonlinear regression with the equation: f(x) 205 [fit=(A+((B−A)/(1+((C/x)^))))], where A is the minimum response (Ymin), B is the maximum response (Ymax), C is the inflection point of the curve (Re GI50) and D is the Hill coefficient. Growth inhibition of 50% (GI50) was calculated at the 50% Growth inhibition on the curve. Index values were the sum of Inhibition rate (IR) at each tested compound concentration.

[2] = Mouse Pharmacokinetics Study; assay type: in vivo; settings: CD-1 mice; for Vd / half-life / clearance / AUC / Cmax / Tmax: mouse, plasma; for Vd / half-life / clearance: IV 2.5 mg/kg; for half-life: 20% Hydroxypropyl-beta-cyclodextrin; for clearance: read-out: Clp
Excerpt: The pharmacokinetic properties of selected compounds were studied CD-1 mice via intravenous and oral administration by using a standard protocol. The test articles were formulated in 20% Hydroxypropyl-beta-cyclodextrin, either as a clear solution or fine suspension.

P-glycoprotein (MDR1) = assay: MDCK-MDR1 Permeability Assay; assay type: in vitro ADME, canine; settings: dog; for efflux ratio at 120 min: MDCK-MDR1, Papp(B-A)/Papp(A-B); for Papp A→B at 120 min: MDCK-MDR1, apical to basolateral; for Papp A→B at 120 min / Papp B→A at 120 min: 1-30 μM; for Papp B→A at 120 min: MDCK-MDR1, basolateral to apical
Protocol: MDCK-MDR1 cells originate from transfection of Madin Darby canine kidney (MDCK) cells with the MDR1 gene, the gene encoding for the efflux protein, P-glycoprotein. This cell line is ideal for identifying substrates of P-gp, with or without an inhibitor. The cells are seeded on a Multiscreen™ plate to form a confluent monolayer over 4 days prior to the experiment. On day 4, the test compound (1-30 μM concentration) is added to the apical side of the membrane and the transport of the compound across the monolayer is monitored over a 120 minutes time period. To study drug efflux, it is also necessary to investigate transport of the compound from the basolateral compartment to the apical compartment and calculate an efflux ratio.
The permeability coefficient (Papp) is calculated from the following equation: Papp=[(dQ/dt)/C0×A] where dQ/dt is the rate of permeation of the drug across the cells, C0 is the donor compartment concentration at time zero and A is the area of the cell monolayer.
An efflux ratio is calculated from the mean apical to basolateral (A-B) Papp data and basolateral to apical (B-A) Papp data. Efflux Ratio=Papp(B−A)/Papp(A−B)

HT-29 colon cancer cells = assay: Antiproliferation assay in HT-29 cells by CellTiter Glo; assay type: cell-based; settings: Homo sapiens, 72 hours or 144 hours

SMILES	efflux ratio at 120 min [1]	Papp A→B at 120 min [1] [×10⁻⁶ cm/s]	Papp B→A at 120 min [1] [×10⁻⁶ cm/s]	GI50 (A375 melanoma cells) [nM]	F ([2]; PO 30 mg/kg) [%]	Vd [2] [L/kg]	half-life [2] [min]	clearance [2] [mL/min/kg]	AUC ([2]; PO 30 mg/kg) [ng·h/mL]	Cmax ([2]; PO 30 mg/kg) [ng/mL]	Tmax ([2]; PO 30 mg/kg) [min]	efflux ratio at 120 min (P-glycoprotein (MDR1))	Papp A→B at 120 min (P-glycoprotein (MDR1)) [×10⁻⁶ cm/s]	Papp B→A at 120 min (P-glycoprotein (MDR1)) [×10⁻⁶ cm/s]	GI50 (HT-29 colon cancer cells) [nM]	F ([2]; PO 25 mg/kg) [%]	AUC ([2]; PO 25 mg/kg) [ng·h/mL]	Cmax ([2]; PO 25 mg/kg) [ng/mL]	Tmax ([2]; PO 25 mg/kg) [min]
CCCS(=O)(=O)Nc1cccc(Oc2ccc3c(c2)C2=NCCN2C=N3)c1C#N [Compound 1, N-(2-Cyano-3-((2,3-dihydroimidazo[1,2-c]quinazolin-9-yl)oxy)phenyl)propane-1-sulfonamide]	2.92	6.42	18.7	< 100	112 ± 14	0.348 ± 0.037	88.2 ± 11.4	2.77 ± 0.52	207000 ± 25900	37300 ± 6240	60	6.53	3.65	23.8	< 100				
CCCS(=O)(=O)Nc1cccc(Oc2ccc3c(c2)C2=NCCN2C=N3)c1Cl [Compound 6, N-(2-Chloro-3-((2,3-dihydroimidazo[1,2-c]quinazolin-9-yl)oxy)phenyl)propane-1-sulfonamide]	0.31	43.5	13.5	< 100		1.22 ± 0.16	28 ± 0.72	30.3 ± 4.64				1.42	26.3	37.2	100 to 1000	58.9 ± 21.5	8220 ± 3000	4220 ± 1350	15
CCCS(=O)(=O)Nc1cccc(Oc2ccc3c(c2)C2=NCCCN2C=N3)c1C#N [Compound 16, N-(2-cyano-3-((3,4-dihydro-2H-pyrimido[1,2-c]quinazolin-10-yl)oxy)phenyl)propane-1-sulfonamide]				< 100								8.79	1.01	8.89	< 100				
CCCS(=O)(=O)Nc1cccc(Oc2ccc3c(c2)C2=NCCCN2C=N3)c1F [Compound 18, N-(3-((3,4-Dihydro-2H-pyrimido[1,2-c]quinazolin-10-yl)oxy)-2-fluorophenyl)propane-1-sulfonamide]	2.2	11.3	24.9	< 100											100 to 1000				
CCCS(=O)(=O)Nc1cccc(Oc2ccc3c(c2)C2=NCCCN2C=N3)c1Cl [Compound 21, N-(2-Chloro-3-((3,4-dihydro-2H-pyrimido[1,2-c]quinazolin-10-yl)oxy)phenyl)propane-1-sulfonamide]	0.36	52.9	19.2	< 100		0.948 ± 0.166	72.6 ± 6	9.03 ± 1.31				1.68	24.1	40.5	< 100	113 ± 11.1	53800 ± 5210	11700 ± 2380	30
CCCS(=O)(=O)Nc1nccc(Oc2ccc3c(c2)C2=NCCCN2C=N3)c1[N+](=O)[O-] [Compound 23, N-(4-((3,4-Dihydro-2H-pyrimido[1,2-c]quinazolin-10-yl)oxy)-3-nitropyridin-2-yl)propane-1-sulfonamide]				> 1000											> 1000				
CCCS(=O)(=O)Nc1nccc(Oc2ccc3c(c2)C2=NCCCN2C=N3)c1Cl [Compound 26, N-(3-Chloro-4-((3,4-dihydro-2H-pyrimido[1,2-c]quinazolin-10-yl)oxy)pyridin-2-yl)propane-1-sulfonamide]				< 100								4.98	3.95	19.6	< 100				
